The text below walks through data of patent US12168003B2, “Selective inhibition of T follicular helper cells for treatment of autoimmune disorders” (priority 2019, dated 2024).

The subject of the data set is eIF4E. Kind of data set: Silencing of eIF4E in OT2 T cells by lentivirus shRNA, adoptive transfer and OVA/Alum. Type of data set: in vivo, mouse. The method, then:
HEK 293T cells were transfected with pTRIPZ plasmid expressing NS shRNA ([…] (SEQ ID NO: 5)) or eIF4E shRNA ([…] (SEQ ID NO: 6)) along with psPAX2 and pMD2.G in Lipofectamine™ 2000 and Opti-MEM®. Supernatant was collected 48 hours later and centrifuged at 3000×g for 15 minutes at room temperature. Cell debris pellet was discarded and supernatant was incubated with PEG-it™ (System Biosciences) at 4° C. for 24 to 48 hours and then centrifuged for 1500×g for 30 minutes at 4° C. Supernatant was discarded and viral pellet was resuspended in cold PBS and frozen at −80° C. until use.
CD4^+ T cells were isolated (EasySep™ CD4^+ T cell isolation; StemCell) from OT2 mice (>95% Vβ5.1/5.2) using negative selection. OT2 T cells were activated in mouse T cell media (RPMI containing 10% FBS, 55 μM 2-ME, 25 mM HEPES, 100 uM Sodium pyruvate, 2 mM Glutamax, non-essential amino acids, 100 U/mL penicillin, and 100 μg/mL streptomycin) and soluble 1 μg/mL anti-CD28 with 50 U/mL IL-2 on plates coated with 10 μg/mL anti-CD3 for 3 days. Following activation, cells were spin-transfected at 3×10^6 cells in 1 mL in 6-well plates with lentivirus and 4 μg/mL dextran (Sigma D9885) at 2,000×g for 60 minutes at 30° C. with no acceleration or break (Kurachi et al., “Optimized Retroviral Transduction of Mouse T Cells for in Vivo Assessment of Gene Function,” Nat. Protoc. 12(9):1980-1998 (2017), which is hereby incorporated by reference in its entirety). Following spinoculation, cells were centrifuged and supernatant was decanted and replaced with fresh media. The next day (day 5) 2 μg/mL puromycin (Gibco) and PMA/ionomycin (BioLegend®) are added to the T cells and incubated for 3 days. On day 8, media was replaced and cells were incubated with PMA/ionomycin again for another 3 days. On day 10, it was confirmed that control cells not transfected with virus were >98% dead and 1.5×10^6 OT2 NS or OT2 eIF4Esh were transferred i.p. to CD45.1 mice. One day following adoptive transfer, mice were placed on doxycycline diet (200 mg/kg) and remained on this diet for the entire study. […]

In the case of “GCGTCAAGCAATCGAGATTTG (SEQ ID NO: 6) (expressed or natural sequence) [eIF4E shRNA, doxycycline-inducible eIF4E shRNA expressed from pTRIPZ lentivirus in OT2 T cells]”, the “eIF4E silencing in spleen and blood transduced OT2 T cells (lower eIF4E level)” value (Dox-inducible shRNA, seven days following Dox addition, vs NS shRNA) is listed as 3 fold. In addition, the “fewer TFH cells formed by OT2 T cells” value (day 15 post-transfer, OVA/Alum, vs control NS OT2 cells) turned out to be 3 fold. For the setting “day 15 post-transfer, vs NS OT2 cells”, the “level of OT2 T cells in the spleen” value is recorded as “no impact”.
